Test results reported in patent US9586951B2 (FUJIFILM Corporation, priority 2013, dated 2017).

What follows are compounds tested against T1, ATM (Homo sapiens, UniProt Q13315) (assay: ATM inhibition test (phosphorylation of Chk2 generated by ionizing radiation, AlphaScreen SureFire)). Settings: phosphorylated Chk2 in NCI-H460 cells, ionizing radiation 8Gy, 1 hour after test compound treatment; read-out: ATM inhibitory activity.
T1 construct: detecting phosphorylation of Chk2 in a human non-small cell lung cancer cell line NCI-H460 (ATCC company); host or cells: NCI-H460 human non-small cell lung cancer cells
T1 sequence (Q13315 whole entry): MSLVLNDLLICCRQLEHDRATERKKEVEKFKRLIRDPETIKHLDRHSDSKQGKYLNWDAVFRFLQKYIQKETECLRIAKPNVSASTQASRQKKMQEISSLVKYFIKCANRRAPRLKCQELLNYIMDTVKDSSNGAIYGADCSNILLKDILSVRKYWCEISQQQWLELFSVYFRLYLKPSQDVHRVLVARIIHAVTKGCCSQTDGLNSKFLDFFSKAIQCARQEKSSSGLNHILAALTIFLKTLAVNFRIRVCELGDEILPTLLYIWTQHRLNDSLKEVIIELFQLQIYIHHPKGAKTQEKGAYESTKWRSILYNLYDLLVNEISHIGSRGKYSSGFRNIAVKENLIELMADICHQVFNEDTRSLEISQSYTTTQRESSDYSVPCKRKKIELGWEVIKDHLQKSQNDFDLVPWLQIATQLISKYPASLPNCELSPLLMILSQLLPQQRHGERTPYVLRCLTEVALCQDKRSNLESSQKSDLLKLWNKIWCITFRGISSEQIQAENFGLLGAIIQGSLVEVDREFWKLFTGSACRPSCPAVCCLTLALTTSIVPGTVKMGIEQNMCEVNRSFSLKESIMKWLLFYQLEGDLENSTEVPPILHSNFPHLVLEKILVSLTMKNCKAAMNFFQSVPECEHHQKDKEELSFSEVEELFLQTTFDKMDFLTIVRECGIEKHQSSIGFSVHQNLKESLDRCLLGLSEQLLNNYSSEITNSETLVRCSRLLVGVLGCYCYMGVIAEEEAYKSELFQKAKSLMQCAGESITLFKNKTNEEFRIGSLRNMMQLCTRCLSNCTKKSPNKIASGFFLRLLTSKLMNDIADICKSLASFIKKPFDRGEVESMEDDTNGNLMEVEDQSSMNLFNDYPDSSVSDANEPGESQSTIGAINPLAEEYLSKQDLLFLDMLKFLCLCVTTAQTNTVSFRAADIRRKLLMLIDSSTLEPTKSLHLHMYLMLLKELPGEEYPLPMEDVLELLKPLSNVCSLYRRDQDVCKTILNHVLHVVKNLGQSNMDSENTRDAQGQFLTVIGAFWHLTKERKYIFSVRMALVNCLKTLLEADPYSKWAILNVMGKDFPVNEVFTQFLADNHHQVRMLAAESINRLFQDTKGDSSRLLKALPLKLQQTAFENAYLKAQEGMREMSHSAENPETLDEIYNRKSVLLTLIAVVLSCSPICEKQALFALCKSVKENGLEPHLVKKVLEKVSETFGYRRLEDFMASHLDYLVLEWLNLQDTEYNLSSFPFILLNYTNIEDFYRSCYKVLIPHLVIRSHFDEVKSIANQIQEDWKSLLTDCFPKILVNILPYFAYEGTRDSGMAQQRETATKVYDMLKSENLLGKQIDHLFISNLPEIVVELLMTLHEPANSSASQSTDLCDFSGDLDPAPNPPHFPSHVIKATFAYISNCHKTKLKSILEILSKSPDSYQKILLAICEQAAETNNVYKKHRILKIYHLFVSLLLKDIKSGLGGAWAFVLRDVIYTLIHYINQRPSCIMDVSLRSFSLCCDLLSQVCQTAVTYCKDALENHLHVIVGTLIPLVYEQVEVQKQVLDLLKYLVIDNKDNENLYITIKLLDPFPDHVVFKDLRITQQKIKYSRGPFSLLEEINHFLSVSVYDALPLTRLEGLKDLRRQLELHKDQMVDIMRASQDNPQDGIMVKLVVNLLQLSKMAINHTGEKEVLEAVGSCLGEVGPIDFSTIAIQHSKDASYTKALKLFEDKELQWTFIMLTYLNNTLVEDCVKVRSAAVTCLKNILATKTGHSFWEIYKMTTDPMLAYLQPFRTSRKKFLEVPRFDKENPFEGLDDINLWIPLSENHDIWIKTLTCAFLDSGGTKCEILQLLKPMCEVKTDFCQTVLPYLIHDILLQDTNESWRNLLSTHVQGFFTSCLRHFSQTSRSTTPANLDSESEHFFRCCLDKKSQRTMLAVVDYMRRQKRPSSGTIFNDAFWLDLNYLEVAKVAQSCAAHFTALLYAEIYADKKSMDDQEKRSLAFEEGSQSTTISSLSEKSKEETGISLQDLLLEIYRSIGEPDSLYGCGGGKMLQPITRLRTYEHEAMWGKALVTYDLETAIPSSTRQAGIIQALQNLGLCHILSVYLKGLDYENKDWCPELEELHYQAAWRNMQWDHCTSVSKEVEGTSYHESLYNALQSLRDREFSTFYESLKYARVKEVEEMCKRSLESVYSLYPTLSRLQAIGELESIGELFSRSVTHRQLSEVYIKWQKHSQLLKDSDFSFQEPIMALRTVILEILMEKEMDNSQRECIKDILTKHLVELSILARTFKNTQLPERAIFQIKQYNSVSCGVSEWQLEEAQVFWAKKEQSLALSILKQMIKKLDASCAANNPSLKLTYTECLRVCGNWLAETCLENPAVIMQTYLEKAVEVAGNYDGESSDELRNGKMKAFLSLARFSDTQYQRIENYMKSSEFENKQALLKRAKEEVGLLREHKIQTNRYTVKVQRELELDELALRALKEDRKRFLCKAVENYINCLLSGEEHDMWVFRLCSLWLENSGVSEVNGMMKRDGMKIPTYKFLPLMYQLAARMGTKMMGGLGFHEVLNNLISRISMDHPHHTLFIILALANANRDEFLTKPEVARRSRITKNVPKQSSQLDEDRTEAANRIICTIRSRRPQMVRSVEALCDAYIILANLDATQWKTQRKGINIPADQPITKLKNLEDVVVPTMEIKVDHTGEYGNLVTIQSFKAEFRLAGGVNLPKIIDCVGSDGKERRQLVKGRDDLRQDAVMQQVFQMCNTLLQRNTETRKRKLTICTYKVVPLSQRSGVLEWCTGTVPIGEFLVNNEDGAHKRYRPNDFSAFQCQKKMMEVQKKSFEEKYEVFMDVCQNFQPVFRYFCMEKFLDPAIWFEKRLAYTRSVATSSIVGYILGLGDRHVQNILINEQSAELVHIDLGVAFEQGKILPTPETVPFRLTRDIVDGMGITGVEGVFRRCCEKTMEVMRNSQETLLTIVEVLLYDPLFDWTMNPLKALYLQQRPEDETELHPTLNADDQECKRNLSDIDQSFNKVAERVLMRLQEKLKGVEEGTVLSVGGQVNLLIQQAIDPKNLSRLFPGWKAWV
Type: cell-based
Summary of the method: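 Phosphorylated Chk2 read by AlphaScreen SureFire in human non-small cell lung cancer NCI-H460 cells, 1 hour after 8Gy ionizing radiation at 37° C. Compound added 1 hour before irradiation. Percent inhibition normalised between irradiated and non-irradiated drug-untreated signals.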

Compound	IC50 [nM]
O=c1cc(N2CCOCC2)cc(-c2cccc3c2Oc2ccc([N+](=O)[O-])cc2S3)[nH]1 [Example 4-1, 4-Morpholino-6-(8-nitrophenoxathiin-4-yl)pyridin-2(1H)-one]	500 to 2000
COc1cncc(CN2CCC(Nc3ccc4c(c3)Cc3cccc(-c5cc(N6CCOCC6)cc(=O)[nH]5)c3O4)CC2)c1 [Example 2-28-2, 6-(7-((1-((5-Methoxypyridin-3-yl)methyl)piperidin-4-yl)amino)-9H-xanthen-4-yl)-4-morpholino pyridin-2(1H)-one]	500 to 2000
COc1cncc(CNc2ccc3c(c2)Cc2cccc(-c4cc(N5CCOCC5)cc(=O)[nH]4)c2N3C)c1 [Example 7, 6-(7-(((5-Methoxypyridin-3-yl)methyl)amino)-10-methyl-9,10-dihydroacridin-4-yl)-4-morpholinopyridin-2(1H)-one]	500 to 2000
CCN(CC)CCNc1ccc2c(c1)Cc1cccc(-c3cc(N4CCOCC4)cc(=O)[nH]3)c1S2 [Example 3-4-4, 6-(7-((2-(Diethylamino)ethyl)amino)-9H-thioxanthen-4-yl)-4-morpholino pyridin-2(1H)-one]	500 to 2000
CC(C)(C)OC(=O)N1CCC[C@H]1C(=O)Nc1ccc2c(c1)Cc1cccc(-c3cc(N4CCOCC4)cc(=O)[nH]3)c1O2 [Example 2-20-2, (S)-tert-butyl 2-((5-(4-morpholino-6-oxo-1,6-dihydropyridin-2-yl)-9H-xanthen-2-yl)carbamoyl)pyrrolidine-1-carboxylate]	500 to 2000
CNc1ccc2c(c1)Cc1cccc(-c3cc(N4CCOCC4)cc(=O)[nH]3)c1S2 [Example 3-10, 6-(7-(methylamino)-9H-thioxanthen-4-yl)-4-morpholinopyridin-2(1H)-one]	500 to 2000
O=c1cc(N2CCOCC2)cc(-c2cccc3c2Oc2ccc(NCc4cncc(-c5cccnc5)c4)cc2C3)[nH]1 [Example 2-2-57, 6-(7-(([3,3′-Bipyridin]-5-ylmethyl)amino)-9H-xanthen-4-yl)-4-morpholino pyridin-2 (1H)-one]	100 to 500
Cc1ccc(C(C)Nc2ccc3c(c2)Sc2cccc(-c4cc(N5CCOCC5)cc(=O)[nH]4)c2S3)nc1 (single isomer, unassigned) [Example 1-12-143-2, 6-(7-((1-(5-methylpyridin-2-yl)ethyl)amino)thianthren-1-yl)-4-morpholinopyridin-2(1H)-one]	100 to 500
COc1cccc(CCN2CCC(Nc3ccc4c(c3)Cc3cccc(-c5cc(N6CCOCC6)cc(=O)[nH]5)c3O4)CC2)c1 [Example 2-30-11, 6-(7-((1-(3-Methoxyphenethyl)piperidin-4-yl)amino)-9H-xanthen-4-yl)-4-morpholino pyridin-2 (1H)-one]	100 to 500
CC(Nc1ccc2c(c1)Sc1cccc(-c3cc(N4CCOCC4)cc(=O)[nH]3)c1S2)c1ncc(CO)cn1 (stereo not shown) [Example 1-12-92, 6-(7-((1-(5-(Hydroxymethyl)pyrimidin-2-yl)ethyl)amino)thianthren-1-yl)-4-morpholino pyridin-2(1H)-one]	100 to 500
O=c1cc(N2CCOCC2)cc(-c2cccc3c2Oc2ccc(NCc4cncc(-c5cn[nH]c5)c4)cc2C3)[nH]1 [Example 2-8-2, 6-(7-(((5-(1H-pyrazol-4-yl)pyridin-3-yl)methyl)amino)-9H-xanthen-4-yl)-4-morpholinopyridin-2(1H)-one]	100 to 500
3-((6-(4-Morpholino-6-oxo- 1,6-dihydropyridin-2-yl) thianthren-2-yl)amino) indolin-2-one [Example 1-12-37]	100 to 500
CC(CN1CCN(Cc2ccccc2)CC1)Nc1ccc2c(c1)Sc1cccc(-c3cc(N4CCOCC4)cc(=O)[nH]3)c1S2 (stereo not shown) [Example 1-15-1, 6-(7-((1-(4-Benzylpiperazin-1-yl)propan-2-yl)amino)thianthren-1-yl)-4-morpholinopyridin-2(1H)-one]	100 to 500
O=c1cc(N2CCOCC2)cc(-c2cccc3c2Cc2ccc(NCc4ccc(Cl)nc4)cc2O3)[nH]1 [Example 6, 6-(6-(((6-chloropyridin-3-yl)methyl)amino)-9H-xanthen-1-yl)-4-morpholinopyridin-2(1H)-one]	500 to 2000
Cc1ccc(C(Nc2ccc3c(c2)Sc2cccc(-c4cc(N5CCOCC5)cc(=O)[nH]4)c2S3)C2CCCC2)nc1 (stereo not shown) [Example 1-12-125, 6-(7-((Cyclopentyl(5-methylpyridin-2-yl)methyl)amino)thianthren-1-yl)-4-morpholino pyridin-2(1H)-one]	100 to 500
O=c1cc(N2CCOCC2)cc(-c2nccc3c2Oc2ccc(NCc4cncc(Cl)c4)cc2C3)[nH]1 [Example 2-41-9, 6-(7-(((5-Chloropyridin-3-yl)methyl)amino)-5H-chromeno [2,3-c]pyridin-1-yl)-4-morpholino pyridin-2(1H)-one]	100 to 500
COc1cncc(C(C)Nc2ccc3c(c2)Sc2cccc(-c4cc(N5CCOCC5)cc(=O)[nH]4)c2S3)n1 (stereo not shown) [Example 1-12-78, 6-(7-((1-(6-Methoxypyrazin-2-yl)ethyl)amino)thianthren-1-yl)-4-morpholino pyridin-2 (1H)-one]	100 to 500
O=c1cc(N2CCOCC2)cc(-c2cccc3c2Oc2ccc(NCCN4CCOCC4)cc2S3)[nH]1 [Example 4-11, 4-Morpholino-6-(8-((2-morpholinoethyl)amino)phenoxathiin-4-yl)pyridin-2(1H)-one]	100 to 500

The remaining lines, values ahead:

IC50 [nM]	Compound
100 to 500	COc1cncc(C(C)Nc2ccc3c(c2)Cc2cccc(-c4nc(N5CCOCC5)cc(=O)[nH]4)c2O3)c1 (stereo not shown) [Example 2-52-4, 2-(7-((1-(5-Methoxypyridin-3-yl)ethyl)amino)-9H-xanthen-4-yl)-6-morpholinopyrimidine-4(3H)-one]
100 to 500	O=c1cc(N2CCOCC2)cc(-c2cccc3c2Oc2ccc(NCc4cnccc4Cl)cc2S3)[nH]1 [Example 4-4-18]
100 to 500	COc1ccc(CNc2ccc3c(c2)Cc2cccc(-c4cc(N5CCOCC5)cc(=O)[nH]4)c2O3)cc1 [Example 2-40, 6-(7-((4-methoxybenzyl)amino)-9H-xanthen-4-yl)-4-morpholinopyridin-2(1H)-one]
100 to 500	COC[C@H](CN1CCOCC1)Nc1ccc2c(c1)Sc1cccc(-c3cc(N4CCOCC4)cc(=O)[nH]3)c1O2 [Example 10-6, (S)-6-(8-((1-methoxy-3-morpholinopropan-2-yl)amino)phenoxathiin-4-yl)-4-morpholinopyridin-2(1H)-one]
< 100	CCN1CCC(C(Nc2ccc3c(c2)Sc2cccc(-c4cc(N5CCOCC5)cc(=O)[nH]4)c2S3)c2ccc(C)cn2)CC1 (stereo not shown) [Example 1-56-1, 6-(7-(((1-ethylpiperidin-4-yl)(5-methylpyridin-2-yl)methyl)amino)thianthren-1-yl)-4-morpholinopyridin-2(1H)-one]
100 to 500	N#Cc1cccc(CNc2ccc3c(c2)Cc2ccnc(-c4cc(N5CCOCC5)cc(=O)[nH]4)c2O3)n1 [Example 2-41-15, 6-(((1-(4-Morpholino-6-oxo-1,6-dihydropyridin-2-yl)-5H-chromeno[2,3-c]pyridin-7-yl)amino)methyl)picolinonitrile]
100 to 500	CNc1ncc(C(C)Nc2ccc3c(c2)Cc2cccc(-c4cc(N5CCOCC5)cc(=O)[nH]4)c2O3)cn1 (stereo not shown) [Example 2-14-54, 6-(7-((1-(2-(Methylamino)pyrimidin-5-yl)ethyl)amino)-9H-xanthen-4-yl)-4-morpholino pyridin-2(1H)-one]
100 to 500	CCC(Nc1ccc2c(c1)Sc1cccc(-c3cc(N4CCOCC4)cc(=O)[nH]3)c1S2)[C@H](CC)N1CCOCC1 (stereo partly drawn) [Example 1-21-4, 4-Morpholino-6-(7-(((4S)-4-morpholinohexan-3-yl)amino)thianthren-1-yl) pyridin-2(1H)-one]
100 to 500	CC(CN1CCN(C)CC1)Nc1ccc2c(c1)Sc1cccc(-c3cc(N4CCOCC4)cc(=O)[nH]3)c1S2 (single isomer, unassigned) [Example 1-13-3-3, 6-(7-((1-(4-methylpiperazin-1-yl)propan-2-yl)amino)thianthren-1-yl)-4-morpholinopyridin-2(1H)-one]
100 to 500	O=c1cc(N2CCOCC2)cc(-c2cc(F)cc3c2Oc2ccc(NCc4cc(C5CC5)ccn4)cc2C3)[nH]1 [Example 2-48-4, 6-(7-(((4-Cyclopropylpyridin-2-yl)methyl)amino)-2-fluoro-9H-xanthen-4-yl)-4-morpholinopyridin-2(1H)-one]
< 100	COCCN(C)CCC(Nc1ccc2c(c1)Sc1cccc(-c3cc(N4CCOCC4)cc(=O)[nH]3)c1S2)c1cnc(C)cn1 (single isomer, unassigned) [Example 10-3-4, 6-(7-((3-((2-Methoxyethyl) (methyl)amino)-1-(5-methylpyrazin-2-yl)propyl)amino)thianthren-1-yl)-4-morpholino pyridin-2(1H)-one]
100 to 500	O=c1cc(N2CCOCC2)cc(-c2cccc3c2Oc2ccc(NC4CCN(Cc5cccnc5)CC4)cc2C3)[nH]1 [Example 2-9-2, 4-Morpholino-6-(7-((1-(pyridin-3-ylmethyl)piperidin-4-yl)amino)-9H-xanthen-4-yl)pyridin-2(1H)-one]
100 to 500	Cc1csc(CNc2ccc3c(c2)Cc2cccc(-c4cc(N5CCOCC5)cc(=O)[nH]4)c2O3)n1 [Example 2-14-42, 6-(7-(((4-Methylthiazol-2-yl)methyl)amino)-9H-xanthen-4-yl)-4-morpholino pyridin-2(1H)-one]
< 100	Cc1ccc(C(Nc2ccc3c(c2)Sc2cccc(-c4cc(N5CCOCC5)cc(=O)[nH]4)c2S3)[C@@H]2CCN(C)C2)nc1 (single isomer, unassigned) [Example 1-56-16]
< 100	Cc1ccc(C(Nc2ccc3c(c2)Sc2cccc(-c4cc(N5CCOCC5)cc(=O)[nH]4)c2S3)C2CCN(CCF)CC2)nc1 (stereo not shown) [Example 1-56-6, 6-(7-(((1-(2-Fluoroethyl)piperidin-4-yl)(5-methylpyridin-2-yl)methyl)amino)thianthren-1-yl)-4-morpholino pyridin-2(1H)-one]
< 100	Cc1ccc(C(Nc2ccc3c(c2)Sc2cccc(-c4cc(N5CCOCC5)cc(=O)[nH]4)c2S3)[C@H]2CCN(C)C2)nc1 (single isomer, unassigned) [Example 1-56-15]
